“Also recorded” adds a separate entry of the source.
Columns and labels:
[1] = tested on: LNCaP cells; test: Expression profiling of 5-Aza treated LNCaP cells (Agilent 44K array, one-class SAM); type: cell-based, human; settings: 6 μM 5-Aza for 4 or 6 days vs DMSO, 5% false discovery rate, number of methylated genes on the array
Protocol: Significance analysis of microarray (SAM) (Tusher et al. Proc Natl Acad Sci USA 98: 5116-5121 2001) was performed on the gene expression dataset obtained from 5-Aza and DMSO-treated LNCaP cells by selecting genes that were methylated in LNCaP. From 1,171 methylated genes from LNCaP M-NGS (Table 1), a total of 973 genes were mapped to Agilent expression profiling data. One-class SAM analysis was done using default settings and significant genes were calculated with a false discovery rate (FDR) of 0.05.
For 5-Aza stimulation experiments, LNCaP cells cultured in RPMI 1640 were treated with vehicle, dimethyl sulfoxide (DMSO) or 6 μM 5-Aza for 4 or 6 days in duplicates. Total RNA was isolated with Trizol (Life Technologies, Carlsbad, Calif.) and further purified using RNAeasy Micro Kit (Qiagen, Valencia, Calif.) according to the manufacturer's instructions. Expression profiling was performed using the Agilent 44K expression array. One microgram of total RNA was converted to cRNA and then labeled according to the manufacturer's protocol (Agilent). Hybridizations were performed for 16 h at 65° C. Scanned images from Agilent microarray scanner were analyzed and extracted using Agilent Feature Extraction Software 9.1.3.1 with linear and lowess normalization performed for each array. […]

[2] = tested on: LNCaP cells; test: Quantitative real time PCR of transcript variants in 5-Aza treated LNCaP cells; type: cell-based, human; settings: 5-Aza treatment vs DMSO
Protocol: Total RNA was isolated from cells using RNeasy mini kit (Qiagen, Valencia, Calif.) according to manufacturer's instructions. A DNAseI treatment step was included during the total RNA isolation procedure to remove genomic DNA from the samples. One microgram of total RNA was used in cDNA synthesis using Superscript III reverse transcriptase (Invitrogen, Carlsbad, Calif.). Quantitative real time PCR (QPCR) was performed on prostate cell line cDNA samples using SYBR Green Mastermix (Applied Biosystems) on an Applied Biosystems 7900 Real Time PCR system as described (Tomlins et al. 2007, Nat Genet 39: 41-51). GAPDH primers sequences were as described (Vandesompele et al. 2002, Genome Biol 3: RESEARCH0034). The amount of target transcript and GAPDH in each sample was normalized by standard ddCt methodology, and then to the reference PrEC or DMSO-treated LNCaP samples accordingly.
For 5-Aza stimulation experiments, LNCaP cells cultured in RPMI 1640 were treated with vehicle, dimethyl sulfoxide (DMSO) or 6 μM 5-Aza for 4 or 6 days in duplicates. Total RNA was isolated with Trizol (Life Technologies, Carlsbad, Calif.) and further purified using RNAeasy Micro Kit (Qiagen, Valencia, Calif.) according to the manufacturer's instructions. Expression profiling was performed using the Agilent 44K expression array. One microgram of total RNA was converted to cRNA and then labeled according to the manufacturer's protocol (Agilent). Hybridizations were performed for 16 h at 65° C. Scanned images from Agilent microarray scanner were analyzed and extracted using Agilent Feature Extraction Software 9.1.3.1 with linear and lowess normalization performed for each array. A total of 4 hybridizations were performed including two 4 day and two 6 day 5-Aza treated samples (Cy5) against control DMSO-treated samples (Cy3). The accession number for gene expression dataset in the GEO database is GSE27619.

For Nc1ncn([C@H]2C[C@H](O)[C@@H](CO)O2)c(=O)n1 [5-Aza, 5-Aza-2′-deoxycytidine], the “upregulation of LNCaP methylated genes (SAM)” value [1] was 246 out of 973, the “re-expression of CpG-methylated APC variant-2 and -3” value [2] was “preferentially re-expressed; also recorded: re-expression” and the “re-expression of CpG-methylated NDRG2 variants 1-4” value [2] was “preferentially re-expressed; also recorded: re-expression”. The “re-expression of CpG-methylated RASSF1 variant-1 transcript” value [2] was “preferential re-expression”.
